Measured values published in patent US11440923B2, “Substituted macrocyclic indole derivatives” (Bayer Aktiengesellschaft, priority 2017, dated 2022).
pEC50, pIC50: −log10 of the molar value. Where a name gives a salt, the structure may show the parent alone. Read-outs that look alike come from different tables or passages of the source.

Columns and labels:
BCL-2 = BCL-2 (Homo sapiens (Human), UniProt P10415); experiment: Protein-protein interaction assay BCL-2/Bad BH3 peptide (BCL-2 assay, TR-FRET); assay type: binding; conditions: read-out: BCL-2 Assay IC50 (median)
Sequence of BCL-2 (P10415 1-211): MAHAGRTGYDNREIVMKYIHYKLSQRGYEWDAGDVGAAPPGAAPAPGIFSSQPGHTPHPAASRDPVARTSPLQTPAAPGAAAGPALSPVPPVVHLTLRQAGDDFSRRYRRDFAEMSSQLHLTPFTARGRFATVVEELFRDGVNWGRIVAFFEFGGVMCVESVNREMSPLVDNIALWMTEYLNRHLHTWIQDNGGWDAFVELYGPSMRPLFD
Summary of the method: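 His-tagged BCL-2 (aa 1-211, E. coli, 1 nM) preincubated 10 min at 22° C with compound (0.1 nM-20 μM), then 1 nM biotinylated Bad BH3 peptide with anti-His-Eu/streptavidin-XL665 added. Buffer: 50 mM Tris pH 7, 100 mM NaCl, 50 mM KF, 2 mM DTT. Incubated 1 h at 22° C, then overnight at 4° C. 665/620 ratio normalized; IC50 by 4-parameter fit.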

SUDHL10 cells = experiment: Induction of caspase-3/7 activity in SUDHL10 cells (Assay 4); assay type: cell-based
Summary of the method: (§1)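 Caspase-3/7 activity measured in DLBCL lines after 3 h compound exposure at 37 °C, following overnight plating; Caspase-Glo 3/7 luminescence read after 1 h at 37 °C. Medium-only background subtracted, values normalized to mean of DMSO-treated cells.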

SUDHL5 cells [1] = experiment: Antiproliferation assay SUDHL5 (Assay 7); assay type: cell-based
Summary of the method: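 Growth inhibition is determined from ATP luminescence (CellTiter-Glo) following 72 h incubation with compound. Time-zero cells are measured the same way for baseline, and IC50s are referenced to DMSO controls.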

SUDHL5 cells [2] = experiment: Induction of caspase-3/7 activity in SUDHL5 cells (Assay 4); assay type: cell-based
Summary of the method: as §1

[3] = caspase-3/7 induction, 3 h; read-out: Caspase SUDHL10 EC50 (median)
[4] = Homo sapiens, SU-DHL-5, 72 h, 72 h, CellTiter-Glo; read-out: Antiproli SUDHL5 IC50 (median)
[5] = caspase-3/7 induction, 3 h; read-out: Caspase SUDHL5 EC50 (median)
[6] = 72 h, CellTiter-Glo; read-out: Antiproli SUDHL5 IC50 (median)
[7] = read-out: Caspase SUDHL10 EC50 (median); caspase-3/7 induction, 3 h
[8] = read-out: Antiproli SUDHL5 IC50 (median); 72 h, CellTiter-Glo
[9] = read-out: Caspase SUDHL5 EC50 (median); caspase-3/7 induction, 3 h

pIC50 (BCL-2)	pEC50 (SUDHL10 cells; [3])	pEC50 (SUDHL5 cells [2]; [5])	pIC50 (SUDHL5 cells [1]; [6])	SMILES	pIC50 (SUDHL5 cells [1]; [4])	pEC50 (SUDHL10 cells; [7])	pIC50 (SUDHL5 cells [1]; [8])	pEC50 (SUDHL5 cells [2]; [9])	pEC50 (SUDHL10 cells; Homo sapiens, SU-DHL10, 3 h, caspase-3/7 induction, 3 h; read-out: Caspase SUDHL10 EC50 (median))	pEC50 (SUDHL5 cells [2]; Homo sapiens, SU-DHL-5, 3 h, caspase-3/7 induction, 3 h; read-out: Caspase SUDHL5 EC50 (median))
< 4.70	7.00	7.72	–	CCc1c2c(nn1C)C(CCO)OCCCCn1c(C(=O)O)c(CCCOc3cccc4cc(F)ccc34)c3ccc(Cl)c-2c31 (single isomer, unassigned; enantiomer 1) [Example 45, (+)-4-chloro-3-ethyl-7-{3-[(6-fluoronaphthalen-1-yl)oxy]propyl}-15-(2-hydroxyethyl)-2-methyl-2,10,11,12,13,15-hexahydropyrazolo[4′,3′:9,10][1,6]oxazacycloundecino[8,7,6-hi]indole-8-carboxylic Acid (Enantiomer 1)]	7.02	–	–	–	–	–
< 4.70	7.59	7.89	7.96	CCc1c2c(nn1C)C(CCN1CCOCC1)OCCCCn1c(C(=O)O)c(CCCOc3cccc4cc(F)ccc34)c3ccc(F)c-2c31 (single isomer, unassigned; enantiomer 1) [Example 50, (+)-3-ethyl-4-fluoro-7-{3-[(6-fluoronaphthalen-1-yl)oxy]propyl}-2-methyl-15-[2-(morpholin-4-yl)ethyl]-2,10,11,12,13,15-hexahydropyrazolo[4′,3′:9,10][1,6]oxazacycloundecino[8,7,6-hi]indole-8-carboxylic Acid (Enantiomer 1)]	–	–	–	–	–	–
4.77	–	–	–	CCc1c2c(nn1C)C(CC(C)(C)O)OCCCCn1c(C(=O)O)c(CCCOc3cccc4cc(F)ccc34)c3ccc(Cl)c-2c31 (single isomer, unassigned; enantiomer 1) [Example 53, (+)-4-chloro-3-ethyl-7-{3-[(6-fluoronaphthalen-1-yl)oxy]propyl}-15-(2-hydroxy-2-methylpropyl)-2-methyl-2,10,11,12,13,15-hexahydropyrazolo[4′,3′:9,10][1,6]oxazacycloundecino[8,7,6-hi]indole-8-carboxylic Acid—N-ethylethanamine Salt (Enantiomer 1)]	–	6.80	7.00	7.12	–	–
< 4.70	–	–	–	Cc1c2c(nn1C)C(CCN1CCOCC1)OCCCCn1c(C(=O)O)c(CCCOc3cccc4ccccc34)c3ccc(F)c-2c31 (single isomer, unassigned; enantiomer 2) [Example 9, 4-fluoro-2,3-dimethyl-15-[2-(morpholin-4-yl)ethyl]-7-{3-[(naphthalen-1-yl)oxy]propyl}-2,10,11,12,13,15-hexahydropyrazolo[4′,3′:9,10][1,6]oxazacycloundecino[8,7,6-hi]indole-8-carboxylic Acid—N-ethylethanamine Salt (Enantiomer 2)]	–	4.92	5.37	5.19	–	–
< 4.70	4.96	5.64	5.60	Cc1c2c(nn1C)C(CCN1CCOCC1)OCCCCn1c(C(=O)O)c(CCCOc3cccc4ccccc34)c3ccc(Cl)c-2c31 (single isomer, unassigned; enantiomer 2) [Example 15, 4-chloro-2,3-dimethyl-15-[2-(morpholin-4-yl)ethyl]-7-{3-[(naphthalen-1-yl)oxy]propyl}-2,10,11,12,13,15-hexahydropyrazolo[4′,3′:9,10][1,6]oxazacycloundecino[8,7,6-hi]indole-8-carboxylic Acid (Enantiomer 2)]	–	–	–	–	–	–
< 4.70	< 4.48	< 4.48	4.59	Cc1c2c(nn1C)C(CCO)OCCCCn1c(C(=O)O)c(CCCOc3cccc4ccccc34)c3ccc(Cl)c-2c31 (single isomer, unassigned; enantiomer 2) [Example 32, (−)-4-chloro-15-(2-hydroxyethyl)-2,3-dimethyl-7-{3-[(naphthalen-1-yl)oxy]propyl}-2,10,11,12,13,15-hexahydropyrazolo[4′,3′:9,10][1,6]oxazacycloundecino[8,7,6-hi]indole-8-carboxylic Acid (Enantiomer 2)]	–	–	–	–	–	–
< 4.70	5.01	5.30	5.64	CCc1c2c(nn1C)C(CCN1CCOCC1)OCCCCn1c(C(=O)O)c(CCCOc3cccc4cc(F)ccc34)c3ccc(F)c-2c31 (single isomer, unassigned; enantiomer 2) [Example 51, (−)-3-ethyl-4-fluoro-7-{3-[(6-fluoronaphthalen-1-yl)oxy]propyl}-2-methyl-15-[2-(morpholin-4-yl)ethyl]-2,10,11,12,13,15-hexahydropyrazolo[4′,3′:9,10][1,6]oxazacycloundecino[8,7,6-hi]indole-8-carboxylic Acid (Enantiomer 2)]	–	–	–	–	–	–
< 4.70	–	–	–	CCc1c2c(nn1C)C(CC(C)(C)O)OCCCCn1c(C(=O)O)c(CCCOc3cccc4cc(F)ccc34)c3ccc(Cl)c-2c31 (single isomer, unassigned; enantiomer 21) [Example 54, (−)-4-chloro-3-ethyl-7-{3-[(6-fluoronaphthalen-1-yl)oxy]propyl}-15-(2-hydroxy-2-methylpropyl)-2-methyl-2,10,11,12,13,15-hexahydropyrazolo[4′,3′:9,10][1,6]oxazacycloundecino[8,7,6-hi]indole-8-carboxylic Acid—N-ethylethanamine Salt (Enantiomer 21]	–	4.85	4.89	5.19	–	–

SMILES	pIC50 (BCL-2)	pEC50 (SUDHL10 cells; [3])	pEC50 (SUDHL5 cells [2]; [5])	pIC50 (SUDHL5 cells [1]; [6])	pIC50 (SUDHL5 cells [1]; [4])	pEC50 (SUDHL10 cells; [7])	pIC50 (SUDHL5 cells [1]; [8])	pEC50 (SUDHL5 cells [2]; [9])	pEC50 (SUDHL10 cells; Homo sapiens, SU-DHL10, 3 h, caspase-3/7 induction, 3 h; read-out: Caspase SUDHL10 EC50 (median))	pEC50 (SUDHL5 cells [2]; Homo sapiens, SU-DHL-5, 3 h, caspase-3/7 induction, 3 h; read-out: Caspase SUDHL5 EC50 (median))
CCc1c2c(nn1C)C(CCN1CCC(F)(F)C1)OCCCCn1c(C(=O)O)c(CCCOc3cccc4cc(F)ccc34)c3ccc(Cl)c-2c31 (single isomer, unassigned; enantiomer 1) [Example 56, 4-chloro-15-[2-(3,3-difluoropyrrolidin-1-yl)ethyl]-3-ethyl-7-{3-[(6-fluoronaphthalen-1-yl)oxy]propyl}-2-methyl-2,10,11,12,13,15-hexahydropyrazolo[4′,3′:9,10][1,6]oxazacycloundecino[8,7,6-hi]indole-8-carboxylic Acid—N-ethylethanamine Salt (Enantiomer 1)]	< 4.70	–	–	–	–	7.70	7.06	7.74	–	–
CCc1c2c(nn1C)C(CCN1CCOCC1)OCCCCn1c(C(=O)O)c(CCCOc3cccc4ccccc34)c3ccc(F)c-2c31 (single isomer, unassigned; enantiomer 2) [Example 12, 3-ethyl-4-fluoro-2-methyl-15-[2-(morpholin-4-yl)ethyl]-7-{3-[(naphthalen-1-yl)oxy]propyl}-2,10,11,12,13,15-hexahydropyrazolo[4′,3′:9,10][1,6]oxazacycloundecino[8,7,6-hi]indole-8-carboxylic Acid—N-ethylethanamine Salt (Enantiomer 2)]	< 4.70	–	–	–	–	5.15	5.59	5.57	–	–
Cc1c2c(nn1C)C(CCN1CCOCC1)OCCCCn1c(C(=O)O)c(CCCOc3cccc4cc(F)ccc34)c3ccc(F)c-2c31 (single isomer, unassigned; enantiomer 2) [Example 21, 4-fluoro-7-{3-[(6-fluoronaphthalen-1-yl)oxy]propyl}-2,3-dimethyl-15-[2-(morpholin-4-yl)ethyl]-2,10,11,12,13,15-hexahydropyrazolo[4′,3′:9,10][1,6]oxazacycloundecino[8,7,6-hi]indole-8-carboxylic Acid (Enantiomer 2)]	< 4.70	–	–	–	5.47	–	–	–	4.89	4.96
CCc1c2c(nn1C)C(CCN1CCC(F)(F)C1)OCCCCn1c(C(=O)O)c(CCCOc3cccc4cc(F)ccc34)c3ccc(Cl)c-2c31 (single isomer, unassigned; enantiomer 2) [Example 57, 4-chloro-15-[2-(3,3-difluoropyrrolidin-1-yl)ethyl]-3-ethyl-7-{3-[(6-fluoronaphthalen-1-yl)oxy]propyl}-2-methyl-2,10,11,12,13,15-hexahydropyrazolo[4′,3′:9,10][1,6]oxazacycloundecino[8,7,6-hi]indole-8-carboxylic Acid N-ethylethanamine Salt (Enantiomer 2)]	< 4.70	–	–	–	–	5.11	5.06	5.13	–	–
CCc1c2c(nn1C)C(CCC1CCOCC1)OCCCCn1c(C(=O)O)c(CCCOc3cccc4cc(F)ccc34)c3ccc(Cl)c-2c31 (single isomer, unassigned; enantiomer 2) [Example 62, (−)-4-chloro-3-ethyl-7-{3-[(6-fluoronaphthalen-1-yl)oxy]propyl}-2-methyl-15-[2-(oxan-4-yl)ethyl]-2,10,11,12,13,15-hexahydropyrazolo[4′,3′:9,10][1,6]oxazacycloundecino[8,7,6-hi]indole-8-carboxylic Acid (Enantiomer 2)]	< 4.70	5.16	5.38	5.28	–	–	–	–	–	–
